Test system: HEK293T cells stably transfected with 8×TBD luciferase reporter and pRLTK
Experiment: YAP Reporter Assay (8×TBD firefly luciferase reporter)
Assay type: cell-based
Conditions: Homo sapiens, HEK-293T; HEK293T 8×TBD reporter cells, 24-hr incubation, top concentration 3 μM, 1:3 dilution, 10 points
Description: HEK293T cells stably transfected with 8×TBD luciferase reporter and pRLTK in 384-well plates were treated with the test compounds, starting from 3 μM (final concentration in assay plate), 1:3 dilution, and 10 points in quadruplicates. Post 24-hr incubation with compounds at 37° C. and 5% CO2, cells were lysed and 8×TBD-driven firefly luciferase and control TK-driven renilla luciferase activities were measured using Promega Dual-Luciferase Reporter Assay System.
Reagents: The reagents used for this study are: DMEM: Invitrogen #11960077, Dual-Glo Luciferase Assay System: Promega-E2980, Puromycin Dihydrochloride: Invitrogen-A1113803, 384-well plate: PerkinElmer-6007480, L-GLUTAMINE: Invitrogen-25030164, Hygromycin B: Invitrogen-10687010, and Penicillin-Streptomycin: Merk-TMS-AB2-C
Media: The media used for this assay were: Culture Medium: DMEM+1 ug/mL puromycin+200 ug/mL hygromycin (with 10% FBS+1 mM L-glutamine); and Assay Medium: DMEM (with 10% FBS+1 mM L-glutamine+1×P/S).
Cell Plating: The appropriate media was warmed at 37° C. by water bath: Culture Medium, Assay Medium, 1*D-PBS, 0.05% trypsin-EDTA. The cells were trypsinized after removing all media, then washed with 1* sterile D-PBS and then with 2 ml 0.05% trypsin-EDTA. The cells were then incubated at RT for one minute. Then 10 ml/75 cm2 flask Assay Medium was added to each flask. Using a 10 ml pipette, the cells were then gently resuspended in the media, until the clumps completely disappeared. The cells were then transferred into 50 ml centrifuge tubes and were centrifuged at 800 rpm for 5 mins. The medium was removed and the cells were resuspended with Assay Medium. An aliquot of cells was used to count the cell density (cells/ml). The cell suspension was then diluted with Assay Medium to a concentration of 6×10^4 cells/ml. 50 ul cells suspension was then plated to 384-well plate (PerkinElmer-6007480), 3×10^3 cells/well and the cells were incubated in an incubator at 37° C., 5% CO2.
Compound Treatment: In the afternoon (incubation of the plate with 3-4 hrs), the test compounds were added by Echo, starting from 3 uM (final concentration in the assay plate), 1:3 dilution, 10 points, quadruplicates. The plate was placed at 37° C., 5% CO2 incubator for 24 hrs.
Detection: The Dual-Glo Luciferase Reagent was prepared by transferring the contents of one bottle of Dual-Glo Luciferase Buffer to one bottle of Dual-Glo Luciferase Substrate to create the Dual-Glo Luciferase Reagent. Mixing was performed by inversion until the substrate was thoroughly dissolved. After mixing, the reagent was aliquoted into 15 ml tubes. In the afternoon (24 hrs post compound treatment), the DMEM+ medium in the 384 well plates were aspirated by Microplate Washer.
Measuring firefly luciferase activity: 20 ul Dual-Glo Luciferase Reagent was added to the 384-well plates. The plates were protected from light to prevent interference with the assay. The plates were shaken for 1 min followed centrifuging plates at 1000 rpm for 30 seconds. After waiting at least 10 minutes, the firefly luminescence was measured by Envision.
Measuring renilla luciferase activity: 20 ul Stop-Glo Reagent was added to the 384-well plates. The plates were shaken for 1 min and then centrifuged at 1000 rpm for 30 seconds. After waiting at least 10 minutes, the renilla luminescence was measured by Envision.
Compound IC50 and maximum inhibition on the firefly luciferase and renilla luciferase activities were reported separately.

Compound	IC50 [nM]
O=C(O)c1ccc(Nc2ccc(C(F)(F)F)cc2)c(-c2ccccn2)c1 [Compound 39, 3-(pyridin-2-yl)-4-((4-(trifluoromethyl)phenyl)amino) benzoic acid]	≤ 100
O=C(O)c1ccc(Nc2ccc(C(F)(F)F)cc2)c(-c2ncccn2)c1 [Compound 40, 3-(pyrimidin-2-yl)-4-((4-(trifluoromethyl)phenyl)amino) benzoic acid]	≤ 100
O=C(O)c1ccc(Nc2ccc(C(F)(F)F)cc2)c(-c2cscn2)c1 [Compound 41, 3-(thiazol-4-yl)-4-((4-(trifluoromethyl)phenyl)amino) benzoic acid]	≤ 100
O=C(O)c1ccc(Nc2ccc(C(F)(F)F)cc2)c(-c2nccs2)c1 [Compound 42, 3-(thiazol-2-yl)-4-((4-(trifluoromethyl)phenyl)amino) benzoic acid]	≤ 100
O=C(O)c1ccc(Nc2ccc(C(F)(F)F)cc2)c(-c2cnccn2)c1 [Compound 43, 3-(pyrazin-2-yl)-4-((4-(trifluoromethyl)phenyl)amino) benzoic acid]	≤ 100
Cn1nnc(-c2cc(C(=O)NCCOCCOCCN)ccc2Nc2ccc(C(F)(F)F)cc2)n1 [Compound 44, N-(2-(2-(2-aminoethoxy)ethoxy)ethyl)-3-(2-methyl-2H-tetrazol-5-yl)-4-((4-(trifluoromethyl)phenyl)amino) benzamide]	100 to 1000
CC(=O)NCCOCCOCCNC(=O)c1ccc(Nc2ccc(C(F)(F)F)cc2)c(-c2nnn(C)n2)c1 [Compound 45, N-(2-(2-(2-acetamidoethoxy)ethoxy)ethyl)-3-(2-methyl-2H-tetrazol-5-yl)-4-((4-(trifluoromethyl)phenyl)amino) benzamide]	≤ 100
O=C(O)c1ccc(Nc2ccc(C(F)(F)F)cc2)c(-c2cccnn2)c1 [Compound 46, 3-pyridazin-3-yl-4-[4-(trifluoromethyl)anilino] benzoic acid]	≤ 100
Cn1nnc(-c2cc(C(=O)NCCOCCOCCNC(=O)OC(C)(C)C)ccc2Nc2ccc(C(F)(F)F)cc2)n1 [Compound 47, tert-butyl (2-(2-(2-(3-(2-methyl-2H-tetrazol-5-yl)-4-((4-(trifluoromethyl)phenyl)amino)benzamido)ethoxy)ethoxy)ethyl)carbamate]	100 to 1000
O=C(O)c1ccc(Nc2ccc(C(F)(F)F)cc2)c(-c2cc(F)ccn2)c1 [Compound 49, 3-(4-fluoro-2-pyridyl)-4-[4-(trifluoromethyl)anilino] benzoic acid]	≤ 100
COc1ccnc(-c2cc(C(=O)O)ccc2Nc2ccc(C(F)(F)F)cc2)c1 [Compound 50]	≤ 100
O=C(O)c1ccc(Nc2ccc(C(F)(F)F)cc2)c(-c2ccc(F)cn2)c1 [Compound 51, 3-(5-fluoro-2-pyridyl)-4-[4-(trifluoromethyl)anilino] benzoic acid]	≤ 100
O=C(O)c1ccc(Nc2ccc(C(F)(F)F)cc2)c(-c2ccc(Cl)cn2)c1 [Compound 52, 3-(5-chloro-2-pyridyl)-4-[4 (trifluoromethyl)anilino] benzoic acid]	≤ 100
COC(=O)c1ccc(Nc2ccc(C(F)(F)F)cc2)c(-c2nnc(C3CC3)o2)c1 [Compound 53, methyl 3-(5-cyclopropyl-1,3,4-oxadiazol-2-yl)-4-((4-(trifluoromethyl)phenyl)amino)benzoate]	≤ 100
O=C(O)c1ccc(Nc2ccc(C(F)(F)F)cc2)c(-c2nnc(C3CC3)o2)c1 [Compound 54, 3-(5-cyclopropyl-1,3,4-oxadiazol-2-yl)-4-((4-(trifluoromethyl)phenyl)amino) benzoic acid]	≤ 100
O=C(O)c1ccc(Nc2ccc(C(F)(F)F)cc2)c(-c2cc(Cl)ccn2)c1 [Compound 55, 3-(4-chloro-2-pyridyl)-4-[4-(trifluoromethyl)anilino] benzoic acid]	≤ 100
COC(=O)c1ccc(Nc2ccc(C(F)(F)F)cc2)c(-c2cc(N)ncn2)c1 [Compound 56, methyl 3-(6-aminopyrimidin-4-yl)-4-[4-(trifluoromethyl)anilino] benzoate]	≤ 100
O=C(O)c1ccc(Nc2ccc(C(F)(F)F)cc2)c(-c2cocn2)c1 [Compound 57, 3-(oxazol-4-yl)-4-((4-(trifluoromethyl)phenyl)amino) benzoic acid]	≤ 100
O=C(O)c1ccc(Nc2ccc(C(F)(F)F)cc2)c(-c2nnc(C(F)(F)F)s2)c1 [Compound 58, 4-[4-(trifluoromethyl)anilino]-3-[5-(trifluoromethyl)-1,3,4-thiadiazol-2-yl]benzoic acid]	≤ 100
O=C(O)c1ccc(Nc2ccc(C(F)(F)F)cc2)c(-c2nnc(C3CC3)s2)c1 [Compound 59, 3-(5-cyclopropyl-1,3,4-thiadiazol-2-yl)-4-((4-(trifluoromethyl)phenyl)amino) benzoic acid]	≤ 100
O=C(O)c1ccc(Nc2ccc(C(F)(F)F)cc2)c(-c2ccncn2)c1 [Compound 60, 3-pyrimidin-4-yl-4-[4-(trifluoromethyl)anilino] benzoic acid]	100 to 1000
O=C(O)c1ccc(Nc2ccc(C(F)(F)F)cc2)c(-c2ncco2)c1 [Compound 61, 3-(oxazol-2-yl)-4-((4-(trifluoromethyl)phenyl)amino) benzoic acid]	≤ 100
Cn1nnc(-c2cc(C(=O)NCCOCCOCCOCCOCCNC(=O)OC(C)(C)C)ccc2Nc2ccc(C(F)(F)F)cc2)n1 [Compound 63, tert-butyl (1-(3-(2-methyl-2H-tetrazol-5-yl)-4-((4-(trifluoromethyl)phenyl)amino)phenyl)-1-oxo-5,8,11,14-tetraoxa-2-azahexadecan-16-yl)carbamate]	100 to 1000
COCC(=O)NCCOCCOCCNC(=O)c1ccc(Nc2ccc(C(F)(F)F)cc2)c(-c2nnn(C)n2)c1 [Compound 64, 3-(2-methyl-2H-tetrazol-5-yl)-N-(4-oxo-2,8,11-trioxa-5-azatridecan-13-yl)-4-((4-(trifluoromethyl)phenyl)amino) benzamide]	100 to 1000
COCCC(=O)NCCOCCOCCNC(=O)c1ccc(Nc2ccc(C(F)(F)F)cc2)c(-c2nnn(C)n2)c1 [Compound 65, 3-(2-methyl-2H-tetrazol-5-yl)-N-(5-oxo-2,9,12-trioxa-6-azatetradecan-14-yl)-4-((4-(trifluoromethyl)phenyl)amino) benzamide]	100 to 1000

Source: patent US11524943B1 (Vivace Therapeutics, Inc., priority 2017, dated 2022)
